The target of test [1] is T1, cloned recombinant human HDAC-1 (Homo sapiens, UniProt Q13547).
T1 construct: made in house; host or cells: Baculovirus insect cell expression system
Briefly: Human HDAC-1 enzyme inhibition, Assay 1 ([3H]-acetylated histone substrate, scintillation counting). Format: biochemical. As to the method: Assay 1. HDAC inhibitors were screened against a cloned recombinant human HDAC-1 enzyme expressed and purified from a Baculovirus insect cell expression system. […] The mixture was extracted with ethyl acetate and the released [^3H]-acetic acid was quantified by scintillation counting. For inhibition studies, the enzyme was preincubated with compounds at 4° C. for 30 minutes prior to initiation of the enzymatic assay. IC50 values for HDAC enzyme inhibitors were determined by performing dose response curves with individual compounds and determining the concentration of inhibitor producing fifty percent of the maximal inhibition.

Another test has as its system HCT116 cells. Briefly: MTT assay. Format: cell-based. Conditions: Homo sapiens, HCT116 cells, 72 hours. On the procedure: HCT116 cells (2000/well) were plated into 96-well tissue culture plates one day before compound treatment. Compounds at various concentrations were added to the cells. The cells were incubated for 72 hours at 37° C. in 5% CO2 incubator. MTT (3-[4,5-dimethylthiazol-2-yl]-2,5 diphenyl tetrazolium bromide, Sigma) was added at a final concentration of 0.5 mg/ml and incubated with the cells for 4 hours before one volume of solubilization buffer (50% N,N-dimethylformamide, 20% SDS, pH 4.7) was added onto the cultured cells. […] OD values were converted to cell numbers according to a standard growth curve of the relevant cell line.

[2] abbreviates: Table 5a, read-out: Human HDAC-1 IC50.
Where [3] appears, read: Table 5c, read-out: Human HDAC-1 IC50.
[4] abbreviates: Table 5E, read-out: Human HDAC-1 IC50.
The mark [5] stands for this setting: Table 5F, read-out: Human HDAC-1 IC50.
[6] abbreviates: Table 5b, read-out: Human HDAC-1 IC50.

Molecules are shown by their SMILES. Like-named read-outs stand apart in the source and are kept apart here. A value given as a limit tells only on which side of the number the result lay.

T1 sequence (Q13547 whole entry): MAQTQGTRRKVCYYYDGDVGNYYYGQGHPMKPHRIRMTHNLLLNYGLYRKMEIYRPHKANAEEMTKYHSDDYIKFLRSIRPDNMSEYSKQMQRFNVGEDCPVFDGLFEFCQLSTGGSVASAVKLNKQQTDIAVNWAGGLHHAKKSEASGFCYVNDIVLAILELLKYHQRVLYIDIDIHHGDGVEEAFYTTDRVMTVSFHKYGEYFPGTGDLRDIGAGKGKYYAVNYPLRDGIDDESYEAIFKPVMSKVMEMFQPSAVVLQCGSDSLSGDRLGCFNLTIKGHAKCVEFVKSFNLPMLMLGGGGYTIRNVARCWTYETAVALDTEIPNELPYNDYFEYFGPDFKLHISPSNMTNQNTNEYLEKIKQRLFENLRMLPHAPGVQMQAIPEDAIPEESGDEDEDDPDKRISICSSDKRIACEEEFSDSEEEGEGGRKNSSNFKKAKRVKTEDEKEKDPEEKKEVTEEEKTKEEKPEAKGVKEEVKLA

What is called IC50 is the concentration that inhibits the measured activity by half. Consider `Nc1ccccc1NC(=O)c1ccc(CNc2nc(N3CCCCC3)nc(N3CCCCC3)n2)cc1` [Cpd 26, N-(2-Amino-phenyl)-4-[(4,6-di-piperidin-1-yl-[1,3,5]triazin-2-ylamino)-methyl]-benzamide], for which the IC50 stood at 0.5 µM in test [1] (setting [2]) and 2 µM with HCT116 cells (HCT-116, 72 h, Table 5a).

In the case of `Nc1ccccc1NC(=O)c1ccc(CNc2nc(NCCc3ccccc3)nc(NC3Cc4ccccc4C3)n2)cc1` [Cpd 27], the IC50 in test [1] (setting [2]) turned out to be 0.4 µM; with HCT116 cells (HCT-116, 72 h, Table 5a) it was 2 µM.

For `COc1ccc(CNc2cccc(/C=C/C(=O)Nc3ccccc3N)n2)cc1` [Cpd 51, N-(2-aminophenyl)-3-[6-(4-methoxy-benzylamino)-pyridin-2-yl]-acrylamide], the IC50 in test [1] (setting [3]) was determined as 22 µM; with HCT116 cells (HCT-116, 72 h, Table 5c) it was 4 µM.

Regarding `COc1cc(CNCc2ccc(/C=C/C(=O)Nc3ccccc3N)cc2)cc(OC)c1OC` [Cpd 59, N-(2-aminophenyl)-3-{4-[(3,4,5-trimethoxy-benzylamino)-methyl]-phenyl}-acrylamide], the IC50 in test [1] (setting [3]) was determined as 12 µM; in the test with HCT116 cells (HCT-116, 72 h, Table 5c) it was 22 µM.

For the compound `COc1ccc(CNc2ccc(/C=C(\C)C(=O)Nc3ccccc3N)cn2)cc1` [Cpd 61b, N-(2-aminophenyl)-3-[6-(4-methoxy-benzylamino)-pyridin-3-yl]-2-methyl-acrylamide], the concentration for half-maximal inhibition (IC50) was found to be 7 µM in test [1] (setting [3]) and 12 µM in the test on HCT116 cells (HCT-116, 72 h, Table 5c).

Take `COc1ccc(CNc2ccc(/C=C/C(=O)Nc3ccccc3N)cc2)cc1` [Cpd 65, N-(2-aminophenyl)-3-{4-(4-methoxy-benzylamino)-phenyl}-acrylamide]: half-maximal inhibition in the test with HCT116 cells (HCT-116, 72 h, Table 5c) (IC50) required 37 µM.

`Nc1ccccc1NC(=O)/C=C/c1ccc(NC/C=C/c2ccccc2)cc1` [Cpd 71]: the IC50 came to 10 µM in test [1] (setting [3]) and 44 µM in the test with HCT116 cells (HCT-116, 72 h, Table 5c).

Consider `COc1ccc(C(=O)Nc2ccc(/C=C/C(=O)Nc3ccccc3N)cc2)cc1` [Cpd 72, N-(4-[2-(2-Amino-phenylcarbamoyl)-vinyl]-phenyl}-4-methoxy-benzamide], for which the IC50 in test [1] (setting [3]) was determined as 16 µM; with HCT116 cells (HCT-116, 72 h, Table 5c) it was 21 µM.

In the test on HCT116 cells (HCT-116, 72 h, Table 5c), `COc1ccc(CNc2ccc3cc(/C=C/C(=O)Nc4ccccc4N)ccc3n2)cc1` [Cpd 88, N-(2-aminophenyl)-3-[2-(4-methoxy-benzylamino)-quinolin-6-yl]-acrylamide] displayed an IC50 of more than 39 µM.

For the compound `Nc1ccccc1NC(=O)/C=C/c1ccc(NCCCn2ccnc2)nc1` [Cpd 97, N-(2-aminophenyl)-3-[6-(3-imidazol-1-yl-propylamino)-pyridin-3-yl]-acrylamide], the IC50 was 10 µM in test [1] (setting [3]) and 12 µM in the test with HCT116 cells (HCT-116, 72 h, Table 5c).

Turning to `NCc1cccc(CNc2ccc(/C=C/C(=O)Nc3ccccc3N)cn2)c1` [Cpd 102, 3-[6-(3-aminomethyl-benzylamino)-pyridin-3-yl]-N-(2-aminophenyl)-acrylamide], the 50% inhibitory concentration (IC50) was found to be 20 µM in test [1] (setting [3]) and 6 µM with HCT116 cells (HCT-116, 72 h, Table 5c).

On to `Nc1ccccc1NC(=O)/C=C/c1ccc(CCNC(=O)OCc2cccnc2)cc1` [Cpd 105], for which the IC50 worked out at 16 µM in test [1] (setting [3]) and 14 µM in the test with HCT116 cells (HCT-116, 72 h, Table 5c).

In the case of `COc1cc(CN(C)Cc2ccc(/C=C/C(=O)Nc3ccccc3N)cc2)cc(OC)c1OC` [Cpd 107], the IC50 in test [1] (setting [3]) came to 15 µM; in the test on HCT116 cells (HCT-116, 72 h, Table 5c), 17 µM.

Consider `Nc1ccccc1NC(=O)/C=C/c1ccc(CSc2ccc3ccccc3n2)cc1` [Cpd 110, N-(2-Amino-phenyl)-3-[4-(quinolin-2-ylsulfanylmethyl)-phenyl]-acrylamide], for which the IC50 in test [1] (setting [3]) is 3 µM.

With `Nc1ccccc1NC(=O)/C=C/c1ccc(NCc2cccnc2)cc1` [Cpd 111, N-(2-amino-phenyl)-3-{4-[(pyridin-3-ylmethyl)-amino]-phenyl}-acrylamide], the IC50 came out at 10 µM in test [1] (setting [3]) and 2 µM in the test on HCT116 cells (HCT-116, 72 h, Table 5c).

Regarding `COc1ccc(C(=O)Nc2ccc(/C=C/C(=O)Nc3ccccc3N)cn2)cc1` [Cpd 114], the IC50 in test [1] (setting [3]) amounted to 25 µM; in the test with HCT116 cells (HCT-116, 72 h, Table 5c), 0.5 µM.

As for `Nc1ccc(CNc2ncc(/C=C/C(=O)Nc3ccccc3N)cn2)cc1` [Cpd 115, 3-[2-(4-amino-benzylamino)-pyrimidin-5-yl]-N-(2-amino-phenyl)-acrylamide], the half-inhibitory concentration (IC50) was 15 µM in test [1] (setting [3]) and 9 µM in the test on HCT116 cells (HCT-116, 72 h, Table 5c).

With `Cc1ccc(CNc2ccc(/C=C/C(=O)Nc3ccccc3N)cn2)cc1` [Cpd 117, N-(2-Amino-phenyl)-3-[6-(4-methyl-benzylamino)-pyridin-3-yl]-acrylamide], the IC50 was 7 µM in test [1] (setting [3]) and 3 µM with HCT116 cells (HCT-116, 72 h, Table 5c).

`COc1ccc(CNc2ncc(/C=C/C(=O)Nc3ccccc3N)cn2)cc1` [Cpd 118, N-(2-amino-phenyl)-3-[2(4-methoxy-benzylamino)-pyrimidin-5-yl]-acrylamide]: the 50% inhibitory concentration (IC50) in test [1] (setting [3]) was 11 µM; with HCT116 cells (HCT-116, 72 h, Table 5c) it was 8 µM.

Consider `COc1cccc(-c2ccc(C(=O)Nc3ccccc3N)cn2)c1` [Cpd 141, N-(2-Amino-phenyl)-6-(3-methoxyphenyl)-nicotinamide], for which the IC50 in test [1] (setting [4]) is 7 µM; in the test with HCT116 cells (HCT-116, 72 h, Table 5E) it was 10 µM.

`Nc1ccccc1NC(=O)c1ccc(CCN2C(=O)c3ccccc3C2=O)cc1` [Cpd 152, N-(2-Amino-phenyl)-4-[2-(1,3-dioxo-1,3-dihydro-isoindol-2-yl)-ethyl]-benzamide]: the concentration for half-maximal inhibition (IC50) stood at 0.3 µM in test [1] (setting [4]) and 11 µM with HCT116 cells (HCT-116, 72 h, Table 5E).

Consider `C=C(C)C#Cc1ccc(C(=O)Nc2ccccc2N)cc1` [Cpd 193], for which the 50% inhibitory concentration (IC50) in test [1] (setting [5]) is 4 µM; in the test with HCT116 cells (HCT-116, 72 h, Table 5F), 16 µM.

As for `COc1cc(-c2ccc3sc(NCc4ccc(C(=O)Nc5ccccc5N)cc4)nc3c2)cc(OC)c1OC` [Cpd 194], in test [1] (setting [5]), the IC50 was determined as 3 µM.

For the compound `CC(C)(O)C#Cc1ccc(C(=O)Nc2ccccc2N)cc1` [Cpd 195], the IC50 in test [1] (setting [5]) was 7 µM; in the test on HCT116 cells (HCT-116, 72 h, Table 5F) it was 9 µM.

For the compound `Nc1ccccc1NC(=O)c1ccc(C#Cc2ccccc2)cc1` [Cpd 196], the IC50 stood at 4 µM in test [1] (setting [5]) and 3 µM with HCT116 cells (HCT-116, 72 h, Table 5F).

With `C[Si](C)(C)C#Cc1ccc(C(=N)Nc2ccccc2N)cc1` [Cpd 198], the IC50 in test [1] (setting [5]) turned out to be 24 µM; in the test with HCT116 cells (HCT-116, Table 5F) it was 14 µM.

For `Nc1ccccc1NC(=O)c1ccc(C#CC(c2ccc(Cl)cc2)N2CCOCC2)cc1` (stereo not drawn) [Cpd 201], the half-inhibitory concentration (IC50) in test [1] (setting [5]) turned out to be 11 µM; with HCT116 cells (HCT-116, 72 h, Table 5F) it was 5 µM.

As for `Cc1nc(NCc2ccc(C(=O)Nc3ccccc3N)cc2)nc(NC2Cc3ccccc3C2)n1` [Cpd 218], the 50% inhibitory concentration (IC50) in test [1] (setting [6]) was 0.1 µM; in the test on HCT116 cells (HCT-116, 72 h, Table 5b) it was 0.5 µM.

As for `Nc1nc(N)nc(/C=C/c2ccc(C(=O)Nc3ccccc3N)cc2)n1` [Cpd 220], the IC50 amounted to 7 µM in test [1] (setting [6]) and 6 µM in the test with HCT116 cells (HCT-116, 72 h, Table 5b).

Regarding `Nc1nc(/C=C/c2ccc(C(=O)Nc3ccccc3N)cc2)nc(N2CCCCC2)n1` [Cpd 223], the IC50 in test [1] (setting [6]) is 11 µM; in the test with HCT116 cells (HCT-116, 72 h, Table 5b), 2 µM.

With `Nc1nc(CCc2ccc(C(=O)Nc3ccccc3N)cc2)nc(N2CCCCC2)n1` [Cpd 224], the IC50 amounted to 5 µM in test [1] (setting [6]) and 3 µM in the test with HCT116 cells (HCT-116, 72 h, Table 5b).

For `Nc1ccccc1NC(=O)c1ccc(CSc2nc3cc(OCCN4CCOCC4)ccc3[nH]2)cc1` [Cpd 236], the IC50 in test [1] (setting [5]) worked out at 5 µM; in the test on HCT116 cells (HCT-116, 72 h, Table 5F), 6 µM.

`COc1ccc(NCc2ccc(C(=O)Nc3cc(C(F)(F)F)ccc3N)cc2)cc1OC` [Cpd 453, N-(2-Amino-5-trifluoromethyl-phenyl)-4-[(3,4-dimethoxy-phenylamino)-methyl]-benzamide] displayed an IC50 in the test with HCT116 cells (HCT-116, 72 h, Table 5F) of 37 µM.

On to `Nc1ccccc1NC(=O)c1ccc(-c2ccc(CNC3Cc4ccccc4C3)s2)cc1` [Cpd 465], for which, in test [1] (setting [5]), the 50% inhibitory concentration (IC50) was found to be 2 µM.

Take `Cc1nc(NCCc2ccccc2)nc(NCc2ccc(C(=O)Nc3ccccc3N)cc2)n1` [Cpd 483, N-(2-amino-phenyl)-4-[(6-methyl-4-phenethylamino-[1,3,5]triazin-2-yl-amino)-methyl]-benzamide]: the IC50 in test [1] (setting [6]) was 4 µM.

Take `COc1cc2c(cc1OC)CN(c1ccc(/C=C/C(=O)Nc3ccccc3N)cc1)CC2` [Cpd 498, N-(2-Amino-phenyl)-3-[4-(6,7-dimethoxy-3,4-dihydro-1H-isoquinolin-2-yl)-phenyl]-acrylamide]: the half-maximal inhibitory concentration (IC50) in test [1] (Table 5d, read-out: HDAC-1 IC50) is more than 25 µM.

As for `COc1cccc(NCc2ccc(/C=C/C(=O)Nc3ccccc3N)cc2)c1` [Cpd 507, N-(2-Amino-phenyl)-3-{4-[(3-methoxy-phenylamino)-methyl]-phenyl}-acrylamide], the IC50 in the test on HCT116 cells (HCT-116, Table 5d) came out at 10 µM.

In the case of `COc1ccccc1NCc1ccc(/C=C/C(=O)Nc2ccccc2N)cc1` [Cpd 508, N-(2-Amino-phenyl)-3-{4-[(2-methoxy-phenylamino)-methyl]-phenyl}-acrylamide], the IC50 in the test with HCT116 cells (HCT-116, Table 5d) amounted to 11 µM.

In the case of `Nc1ccccc1NC(=O)/C=C/c1ccc(CNc2ccccc2)cc1` [Cpd 509, N-(2-Amino-phenyl)-3-(4-phenylaminomethyl-phenyl)-acrylamide], the IC50 in the test with HCT116 cells (HCT-116, Table 5d) came to 11 µM.

In the test with HCT116 cells (HCT-116, Table 5d), `Nc1ccccc1NC(=O)/C=C/c1ccc2c(c1)-c1ccccc1C2` [Cpd 519] showed an IC50 of 6 µM.

As for `COc1ccc(NCc2ccc(/C=C/C(=O)Nc3ccccc3N)cc2)cc1` [Cpd 541, N-(2-Amino-phenyl)-3-{4-[(4-methoxy-phenylamino)-methyl]-phenyl}-acrylamide], the IC50 in the test on HCT116 cells (HCT-116, Table 5d) came to 12 µM.

These data come from patent publication US7868204B2, “Inhibitors of histone deacetylase” (MethylGene Inc., priority 2001, dated 2011).
